In article PMC5444726, “A CD44-specific peptide, RP-1, exhibits capacities of assisting diagnosis and predicting prognosis of gastric cancer” (Oncotarget, 2017):

Key:
SGC-7901 tumor tissue = assay: Fluorescence microscopy of frozen xenograft sections after injection; format: in vivo, athymic nude mice; conditions: 3 h after i.v. injection of peptide
Description: Once fluorescence signal reached its peak at the site of tumor, subcutaneous tumor tissues were harvested for further experiment. After shock-frozen with liquid nitrogen, tumor tissues were cut into 5 μm sections and fixed in 4% paraformaldehyde at ambient temperature for 30 min. The coverslips were mounted with glycerol–gelatin containing anti-fading buffer (Bioworld, Minnesota, USA). Finally, the fluorescence images of frozen sections were captured with a fluorescent microscope (Nikon-Eclipse, Tokyo, Japan)

[1] = tested on: MKN-28 cells not expressing CD44 transgenes; assay: Confocal immunofluorescence of peptide binding to non-CD44 MKN-28 cells; format: cell-based, human; conditions: 100 μM Alexa Fluor 594 labeled peptide, 20 min, co-culture with CD44-overexpressing cells, confocal microscopy
Description: (§1) Plasmids containing cDNA of CD44 protein were synthesized by GENECHEM, Shanghai, China. Using Pfu polymerase and two oligonucleotides ([…] and […]), the CD44 cDNA was cloned into Xhol and ECOR1 sites of GV146 (GENECHEM, Shanghai, China) by recombinant PCR. Then, CD44-negative MNK-28 cells were transfected with the plasmid with Lipofectamine 2000 reagent (Invitrogen, California, USA), and then the efficiency of CD44 expression in MKN-28 cells was tested. Finally, two cell lines were generated as following: MKN-28-con with no CD44 expression and MKN-28-CD44-ox with CD44 overexpression labeled with enhanced green fluorescent protein (EGFP).
(§2) For the preparation of confocal laser microscopy, the transfected MNK-28 cancer cells were washed with phosphate buffer saline (PBS) three times, then fixed with 4% paraformaldehyde at ambient temperature for 30 min, and blocked with 5% BSA (w/v) in PBS at 37°C for 1 h. The blocked cells were sequentially incubated with 100 μM RP-1 or WYP labeled with Alexa Fluor 594 for 20 min, and counterstained with 4,6-diamidino-2-phenylindole (DAPI). […] For the evaluation of the correlation of fluorescent intensities between CD44-EGFP and RP-1-Fluor 594, a semi-quantitative analysis was performed with ImageJ 1.48v software (National Institutes of Health, Maryland, USA) by randomly selecting and observing 10 fields of vision. […]

[2] = tested on: CD44 on MKN-28-CD44-ox cells; assay: Confocal immunofluorescence of peptide binding to CD44-overexpressing MKN-28 cells; format: cell-based, human; conditions: 100 μM Alexa Fluor 594 labeled peptide, 20 min, fixed cells, confocal microscopy
Description: as §1, §2

WHPWSYLWTQQA [RP-1, CD44-specific peptide … screened from a 12-mer phage peptide library]
fluorescence on tumor cells in frozen sections (SGC-7901 tumor tissue): fluorescence signals were observed both on cell membrane and in cytoplasm
binding of peptide to cells without CD44 [1]: bound considerably lower amounts of RP-1 peptide
binding of peptide to CD44 on the cell membrane [2]: apparent binding of RP-1 peptides to CD44 on the cell membrane
